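Cultured in 96-well plates, cells were exposed to test compound for 48 hours across five concentrations. GI50 is the concentration that inhibits growth by half.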 Active and inactive are the calls of the source. Cut-off read from the data, not from the text of the source: active = GI50 up to about 1.1 µM and inactive = higher.
Columns and labels:
Experiment in all cases: NCI-60 cell line screen, 48 h
HCT-116 = system: HCT-116
K562 = system: K562
M14 = system: M14
OVCAR-4 = system: OVCAR-4
LOX IMVI = system: LOX IMVI
Malme-3M = system: Malme-3M
SF-268 = system: SF-268
IGROV-1 = system: IGROV-1
U-251 = system: U-251
SK-OV-3 = system: SK-OV-3
MOLT-4 = system: MOLT-4
SF-539 = system: SF-539
SK-MEL-5 = system: SK-MEL-5
SW-620 = system: SW-620
A498 = system: A498
RXF 393 = system: RXF 393

Measured: GI50

CC1(C)OC(=O)C(=Cc2ccc(O)cc2)C(=O)O1
inactive: HCT-116 > 100 µM | K562 > 100 µM | M14 > 100 µM | OVCAR-4 > 100 µM | LOX IMVI > 100 µM | Malme-3M > 100 µM | SF-268 > 100 µM | IGROV-1 > 100 µM | U-251 > 100 µM | SK-OV-3 > 100 µM | MOLT-4 > 100 µM | SF-539 > 100 µM | SK-MEL-5 > 100 µM | SW-620 > 100 µM | A498 > 100 µM

CC1=C(C(=O)Nc2ccc(Cl)c(Cl)c2)C(c2ccco2)C(C(=O)Nc2ccc(Cl)c(Cl)c2)=C(C)N1
inactive: HCT-116 9.84 µM | K562 7.06 µM | M14 6.14 µM | OVCAR-4 12.1 µM | Malme-3M 14.8 µM | SF-268 11.4 µM | IGROV-1 14.3 µM | U-251 11 µM | SK-OV-3 13.5 µM | MOLT-4 4.98 µM | SF-539 13.8 µM | SK-MEL-5 13.7 µM | SW-620 14.6 µM | A498 12.8 µM

CC(=O)N(C(C)=O)C1=C2c3ccccc3N(S(=O)(=O)c3ccccc3)C2n2c(=O)n(-c3ccccc3)c(=O)n2C1 (stereo not drawn)
inactive: HCT-116 43.3 µM | K562 40.1 µM | M14 27.3 µM | LOX IMVI 29.9 µM | Malme-3M 20.9 µM | SF-268 > 100 µM | IGROV-1 41.7 µM | U-251 34.4 µM | SK-OV-3 32.8 µM | SF-539 19.9 µM | SK-MEL-5 27 µM | SW-620 40.6 µM

Nc1cc2c(C3OC(CO)C(O)C3O)n[nH]c2c(=S)[nH]1 (stereo not drawn)
inactive: HCT-116 > 100 µM | K562 > 100 µM | M14 > 100 µM | OVCAR-4 92.5 µM | Malme-3M > 100 µM | SF-268 > 100 µM | IGROV-1 > 100 µM | U-251 > 100 µM | SK-OV-3 > 100 µM | MOLT-4 > 100 µM | RXF 393 32.7 µM | SF-539 > 100 µM | SK-MEL-5 > 100 µM | SW-620 > 100 µM | A498 > 100 µM

O=c1nc2sc3ccc4ccccc4c3n2nc1O
inactive: HCT-116 78.9 µM | K562 44.5 µM | OVCAR-4 28.8 µM | SF-268 40.4 µM | IGROV-1 67 µM | U-251 25.2 µM | SK-OV-3 > 100 µM | MOLT-4 57.4 µM | RXF 393 15.5 µM | SF-539 > 100 µM | SK-MEL-5 43.8 µM | SW-620 79.4 µM

O=C1/C(=C/c2ccccc2Cl)COc2ccc(Br)cc21
inactive: HCT-116 25.1 µM | K562 3.82 µM | LOX IMVI > 100 µM | Malme-3M > 100 µM | SF-268 > 100 µM | IGROV-1 > 100 µM | U-251 40.6 µM | SK-OV-3 27 µM | MOLT-4 18 µM | RXF 393 39 µM | SF-539 52.8 µM | SW-620 23.8 µM | A498 > 100 µM

Cc1ccc(C)c(N2C(=O)C(=O)C(c3nc4ccccc4s3)/C(=N/NC(=O)NN)C2=O)c1 (stereo not drawn)
inactive: HCT-116 > 100 µM | M14 > 100 µM | OVCAR-4 > 100 µM | Malme-3M > 100 µM | SF-268 > 100 µM | IGROV-1 > 100 µM | U-251 > 100 µM | SK-OV-3 > 100 µM | MOLT-4 > 100 µM | RXF 393 > 100 µM | SF-539 > 100 µM | SK-MEL-5 > 100 µM | SW-620 > 100 µM | A498 > 100 µM

NC(=O)N/N=C(/Cc1nc2ccc(C(=O)c3ccccc3)cc2nc1O)C(=O)Nc1ccc(C(F)(F)F)cc1[N+](=O)[O-]
inactive: HCT-116 > 100 µM | K562 39.6 µM | M14 85.9 µM | OVCAR-4 > 100 µM | LOX IMVI 79.4 µM | Malme-3M > 100 µM | SF-268 > 100 µM | IGROV-1 > 100 µM | U-251 75 µM | SK-OV-3 84.1 µM | MOLT-4 6.1 µM | SF-539 66.5 µM | SK-MEL-5 56.2 µM | SW-620 65.2 µM | A498 > 100 µM

c1ccc(COc2cccc3cccnc23)cc1
inactive: HCT-116 83.6 µM | K562 55 µM | M14 > 100 µM | OVCAR-4 97.3 µM | LOX IMVI 54.5 µM | Malme-3M 48.4 µM | SF-268 28.4 µM | IGROV-1 85.7 µM | SK-OV-3 > 100 µM | MOLT-4 > 100 µM | RXF 393 42.4 µM | SF-539 > 100 µM | SK-MEL-5 50.2 µM | SW-620 > 100 µM

Nc1ccc(/C=C/c2ccnc3ccccc23)cc1
inactive: HCT-116 17.5 µM | K562 12.7 µM | M14 20.2 µM | OVCAR-4 30 µM | Malme-3M 30.3 µM | SF-268 16.5 µM | IGROV-1 28.2 µM | U-251 16.8 µM | MOLT-4 7.76 µM | SF-539 20 µM | SK-MEL-5 15.2 µM | SW-620 24.7 µM

CC(=O)OCC1OC(n2cc(I)c(=O)[nH]c2=O)C(OC(C)=O)C(OC(C)=O)C1OC(C)=O (stereo not drawn)
inactive: HCT-116 > 100 µM | K562 > 100 µM | M14 > 100 µM | OVCAR-4 > 100 µM | LOX IMVI > 100 µM | Malme-3M > 100 µM | SF-268 > 100 µM | IGROV-1 > 100 µM | U-251 > 100 µM | SK-OV-3 > 100 µM | MOLT-4 > 100 µM | RXF 393 > 100 µM | SK-MEL-5 > 100 µM | SW-620 > 100 µM | A498 > 100 µM

COC1OC(C)C(OCc2ccccc2)C(OS(=O)(=O)c2ccc(C)cc2)C1OS(=O)(=O)c1ccc(C)cc1 (stereo not drawn)
inactive: HCT-116 > 100 µM | K562 > 100 µM | M14 > 100 µM | OVCAR-4 > 100 µM | Malme-3M > 100 µM | SF-268 > 100 µM | IGROV-1 > 100 µM | U-251 > 100 µM | SK-OV-3 > 100 µM | MOLT-4 > 100 µM | RXF 393 > 100 µM | SF-539 > 100 µM | SK-MEL-5 > 100 µM | SW-620 > 100 µM

N#CCC(=O)Nc1ccccc1O
inactive: HCT-116 > 100 µM | K562 > 100 µM | M14 > 100 µM | OVCAR-4 > 100 µM | Malme-3M > 100 µM | SF-268 > 100 µM | IGROV-1 > 100 µM | U-251 > 100 µM | SK-OV-3 > 100 µM | MOLT-4 > 100 µM | RXF 393 > 100 µM | SF-539 > 100 µM | SK-MEL-5 > 100 µM | SW-620 > 100 µM | A498 > 100 µM

CC(c1ccccc1)N1O[C@]12CC[C@@]1(C)C(CCCC13OCCO3)C2 (stereo partly drawn)
inactive: HCT-116 16.1 µM | M14 17.6 µM | OVCAR-4 17.5 µM | LOX IMVI 11.8 µM | Malme-3M 32.1 µM | SF-268 43.6 µM | IGROV-1 3.72 µM | U-251 21.1 µM | SK-OV-3 > 100 µM | RXF 393 23.6 µM | SF-539 56.2 µM | SK-MEL-5 36.1 µM | SW-620 16.7 µM
